In paper PMC3760172 (Bioorganic & medicinal chemistry, 2013):

Biological target: rat nNOS (Rattus norvegicus, UniProt P29476)
Test: NOS inhibition assay
Type: biochemical
Details: compared with inhibitor 27

Cc1cc(N)nc(COc2cccc(NCCc3cccc(F)c3)c2)c1 [Compound 24]
decrease in potency (nNOS) relative to 27: 54 fold
